Format in all cases: functional
One experiment deals with MCF7. The experiment is described as follows: Anticancer activity against human MCF7 cells assessed as growth of cells at 100 uM relative to untreated cells.
For a further experiment, the system named is NCI-H460. The experiment is described as follows: Anticancer activity against human NCI-H460 cells assessed as growth of cells at 100 uM relative to untreated cells.
A further experiment concerns SF-268. Put plainly: Anticancer activity against human SF268 cells assessed as growth of cells at 100 uM relative to untreated cells.

`O=c1/c(=C/C=C\c2ccccc2)sc2ncnn12`: the Activity is 138% in the experiment on MCF7, 95% in the experiment with NCI-H460 and 128% in the experiment on SF-268.

These data come from ChEMBL document CHEMBL1147193, “New 5-substituted thiazolo[3,2-b][1,2,4]triazol-6-ones: synthesis and anticancer evaluation” (2007).
